US12403079B2, “Ingredient in sunscreen compositions” (MAGIC BLUE, LLC, priority 2019, dated 2025)

Columns and labels:
[1] = test system: primary human skin cells (skin fibroblast cells or primary keratinocytes); assay: in vitro 2D skin model, cellular ROS levels by MitoSOX; assay type: cell-based; settings: 100 nM and 1 μM, 0.1% DMSO solvent control
Text: Methylene Blue: [7-(dimethylamino) phenthiazin-3-ylldene]-dImethylazinium chloride, or more simply as methylthloninium chloride. Also included are all hydrates, particularly, the hydrate or trihydrate of Methylene Blue as well as all dermatologically acceptable salts thereof, such as the chloride salt. All forms of Methylene Blue are also abbreviated herein as MB and are to be understood as such. about: as used herein means±10%. […] Examples of conventional sunscreen excipients or adjuvants, include, for example, xanthan gums, corn starch, film-forming polymers and/or copolymers, glycerin, emulsifiers, moisturizing agents and cosmetic ingredients. Further examples of conventional sunscreen composition excipients or adjuvants are described in U.S. Pat. Nos. 9,149,664; 8,128,913; 9,050,475 and 6,800,274, all of which are incorporated herein by reference in the entirety. […] SPF: means a “sun protection factor” defined at 21 USC 352.1 et seq. using the term MED, which in turn means Minimal Erythema Dose, which is defined as the quantity of erythema-effective energy (expressed in Joules per square meter) required to produce the first perceptible redness reaction with clearly defined borders. […]

[2] = scale of 1-10 (with 10 being the worst); cited from earlier work
[3] = test system: primary human skin cells (skin fibroblast cells or primary keratinocytes); assay: in vitro 2D skin model, cell proliferation; assay type: cell-based; settings: after 13 days; for cell proliferation: 100 nM and 1 μM, relative to control treatment
Text: Methylene Blue: [7-(dimethylamino) phenthiazin-3-ylldene]-dImethylazinium chloride, or more simply as methylthloninium chloride. Also included are all hydrates, particularly, the hydrate or trihydrate of Methylene Blue as well as all dermatologically acceptable salts thereof, such as the chloride salt. All forms of Methylene Blue are also abbreviated herein as MB and are to be understood as such. about: as used herein means±10%. […] Examples of conventional sunscreen excipients or adjuvants, include, for example, xanthan gums, corn starch, film-forming polymers and/or copolymers, glycerin, emulsifiers, moisturizing agents and cosmetic ingredients. Further examples of conventional sunscreen composition excipients or adjuvants are described in U.S. Pat. Nos. 9,149,664; 8,128,913; 9,050,475 and 6,800,274, all of which are incorporated herein by reference in the entirety. The present invention specifically avoids the inclusion of Oxybenzone and/or Octinoxate in the aforementioned U.S. patents which are used as UVA and/or UVB absorbers, and uses instead, Methylene Blue or any of the hydrates or dermatologically-acceptable salts thereof. Further, it is explicitly contemplated that conventional inorganic compounds, such as zinc oxide and/or titanium oxide, for example, may be used in formulating the sunscreen composition of the present invention. Also, polymers and/or copolymers that are conventionally used as sunscreen stabilizer emollients, such as polyester-8, may also be used in the present sunscreen formulations. Dermatologically-acceptable salts of MB: includes all salts recognized as safe for application to human skin, but generally, the chloride and/or hydrochloride salts are preferred. In vitro 2D skin test: This test is described in by Xiong, et al. in Scientific Reports 7, Article number: 2475 (2017), using primary human skin cells (skin fibroblast cells or primary keratinocytes). Sunscreen agents excluded from the present invention: the conventional sunscreen compounds Oxybenzone and Octinoxate are explicitly excluded from this invention. However, other conventional FDA-approved UVA and UVB absorbers may be used in combination with MB, its hydrates or salts in the present invention. SPF: means a “sun protection factor” defined at 21 USC 352.1 et seq. using the term MED, which in turn means Minimal Erythema Dose, which is defined as the quantity of erythema-effective energy (expressed in Joules per square meter) required to produce the first perceptible redness reaction with clearly defined borders. […]

[4] = spectrophotometric UV absorption of dilute solutions; assay type: physicochemical; settings: 1 mM, MB versus BP-3
Method: In this example, the absorption characteristics based on spectrophotometric analysis of various dilute solutions of each of MB and oxybenzone (BP-3) were measured and then compared. The solution concentrations for each of MB and BP-3 were 100 μM and 1 mM.

[5] = test system: human skin fibroblasts; assay: recovery of MB-pretreated skin fibroblasts after UVB radiation (cell viability, survival); assay type: cell-based; settings: 100 nM pre-treatment for two weeks
Method: In this example, the protection ability of MB against UVB radiation was measured. […] Here, a preliminary study was conducted in which human skin fibroblasts were pre-treated with MB at 100 nM concentration for two weeks and then exposed to 0, 5, 10 and 20 seconds of UVB radiation at 1100 mW/cm^2. In this preliminary study, both groups, i.e., MB-exposed skin cells and the control group, were exposed to the same amount of UVB radiation.

[6] = test system: human keratinocyte cells; assay: cell death of keratinocytes after harsh UVB irradiation; assay type: cell-based; settings: 5 days, versus control human keratinocyte cells
[7] = test system: Umbrella xenia; assay: soft coral exposure in seawater for one week; assay type: in vivo; settings: 0.5 and 1.0 μM in seawater
Text: Samples of Umbrella xenia were placed in individual containers filled with seawater plus any one of MB or Oxybenzone or Octinoxate for one week. All of the containers were otherwise under the exact same temperature, lighting and water flow conditions. Separate containers were used for both “Control” (nothing added) and DMSO, also added in the same two concentrations specified below for MB, Oxybenzone and Octinoxate.

[8] = test system: human skin fibroblasts; assay: gamma H2AX levels (DNA double strand breakage) after UVB exposure; assay type: cell-based; settings: 24 hours after UVB exposure, 100 nM pre-treatment; control group doubled
Method: In this example, the protection ability of MB against UVB radiation was measured. […] Here, a preliminary study was conducted in which human skin fibroblasts were pre-treated with MB at 100 nM concentration for two weeks and then exposed to 0, 5, 10 and 20 seconds of UVB radiation at 1100 mW/cm^2.
Specifically, the histone H2AX Is phosphorylated to a gamma form (gamma H2AX) upon DNA double strand breakage and levels of gamma H2AX positively correlate with the presence of DNA breaks, which are commonly generated by UVB radiation.

Structure (SMILES) | cellular reactive oxygen species (ROS) levels by MitoSOX [1] | EWG hazard score [2] | cell proliferation [3] | protection against UVB radiation (absorption) [4] | recovery after UVB radiation (cell viability) ([5]; UVB 0-20 seconds at 1100 mW/cm^2, five days recovery, versus control group) | survival after high dosage-UVB radiation (imaging analysis) ([5]; versus control samples) | rescue of cell death after harsh UVB irradiation (FIG. 6) [6] | effects on soft corals [7] | levels of gamma H2AX [8] | cell number reading (FIG. 1) ([3]; 100 nM) | cell number reading (FIG. 1) ([3]; 1 μM)
COc1ccc(C(=O)c2ccccc2)c(O)c1 [BP-3] | elevated ROS levels | 8 | no changes in growth | – | – | – | – | – | – | – | –
CN(C)c1ccc2nc3ccc(=[N+](C)C)cc-3sc2c1 [MB, [7-(dimethylamino)phenthiazin-3-ylldene]-dImethylazinium chloride] | dosage-dependent reduction in ROS | – | increase in cell proliferation | superior protection against UVB radiation | significantly superior recovery | superior survival | partially rescue cell death | No adverse effects | reduced levels of gamma H2AX | greatest cell number reading | somewhat less
